Data reported in patent US20240360146A1, “BRUTON'S TYROSINE KINASE AND MUTANT DEGRADER, COMPOSITION AND APPLICATION THEREOF” (HANGZHOU HEALZEN THERAPEUTICS CO., LTD., priority 2021, published 2024).
pIC50: −log10 of the molar value.

Experiments:
Assay type in all cases: cell-based
BTK = biological target: T1, BTK (Homo sapiens, UniProt Q06187); experiment: BTK degradation activity test in Mino cells; settings: 16 h incubation, Western blot or Elisa
T1 construct: endogenous in cells; host or cells: Mino cells
T1 sequence (Q06187 whole entry): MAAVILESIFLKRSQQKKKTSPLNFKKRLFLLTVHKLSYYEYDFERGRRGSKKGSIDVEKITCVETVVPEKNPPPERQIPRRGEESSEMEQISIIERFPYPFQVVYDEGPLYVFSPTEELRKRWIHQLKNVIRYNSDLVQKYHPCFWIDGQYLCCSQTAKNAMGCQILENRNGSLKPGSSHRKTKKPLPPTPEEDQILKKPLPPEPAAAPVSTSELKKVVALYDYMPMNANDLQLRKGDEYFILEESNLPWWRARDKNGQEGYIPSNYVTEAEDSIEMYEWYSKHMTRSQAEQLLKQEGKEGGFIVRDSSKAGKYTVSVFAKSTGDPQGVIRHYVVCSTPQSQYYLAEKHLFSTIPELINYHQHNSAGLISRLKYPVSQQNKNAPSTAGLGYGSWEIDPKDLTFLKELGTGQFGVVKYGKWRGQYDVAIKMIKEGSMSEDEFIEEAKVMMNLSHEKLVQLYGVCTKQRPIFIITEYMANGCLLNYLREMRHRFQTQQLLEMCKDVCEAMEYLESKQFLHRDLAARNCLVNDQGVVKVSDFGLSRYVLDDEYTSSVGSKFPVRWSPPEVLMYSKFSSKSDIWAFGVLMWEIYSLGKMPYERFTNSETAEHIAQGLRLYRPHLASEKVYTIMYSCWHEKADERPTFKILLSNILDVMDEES
In short: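 Mino cells treated with a concentration series of compound for 16 h, then lysed; total protein by BCA. BTK quantified by Western blot or ELISA, degradation rate calculated against blank control, and DC50 fitted from the degradation curve.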

OCI-LY10 cells = experiment: Inhibitory activity on OCI-LY10 cell proliferation (MTS); settings: Homo sapiens, 72 h
Protocol: (§1) The anti-tumor efficacy of the compounds was tested by measuring their inhibitory effects on OCI-LY10 and Mino cell proliferation. OCI-LY10 and Mino cells were cultured in RPMI-1640 medium containing 10% fetal calf serum. OCI-LY10 and Mino cells were digested, inoculated in a 96-well plate at a cell concentration of 10000 cells/well, and incubated overnight at 37° C., 5% CO2. Compounds of different concentrations (1000 nM, 4-fold dilution, 8 points) were added to the 96-well plate and incubated for 72 h (LY10) or 168 h (Mino) at 37° C. and 5% CO2, and then 20 uL of MTS was added to each well. After incubation for 2 h, 25 μl of 10% SDS was added to each well to terminate the reaction. The absorbance at 490 nm and 650 nm were measured with a microplate reader. IC50 was calculated using GraphPad Prism 5.0.

Mino cells = experiment: Inhibitory activity on Mino cell proliferation (MTS); settings: Homo sapiens, 168 h incubation
Protocol: as §1

| SMILES | DC50 (BTK) [nM] | pIC50 (OCI-LY10 cells) | pIC50 (Mino cells) |
| --- | --- | --- | --- |
| Cc1cc(N2CCC(CN3CCC(c4ccc(Nc5nc(N6CCC[C@@H](N7CCN(C)C7=O)C6)nnc5C(N)=O)cc4)CC3)CC2)ccc1N1CCC(=O)NC1=O [Compound 236, (R)-5-((4-(1-((1-(4-(2,4-dioxotetrahydropyrimidin-1(2H)-yl)-3-methylphenyl)piperidin-4-yl)methyl)piperidin-4-yl)phenyl)amino)-3-(3-(3-methyl-2-oxoimidazolidin-1-yl)piperidin-1-yl)-1,2,4-triazin-6-carboxamide] | < 1 | 9.20 |  |
| Cc1cc(N2CCC(CN3CCN(c4ccc(Nc5nc(N6CCC[C@@H](N7CCN(C)C7=O)C6)nnc5C(N)=O)cc4F)CC3)CC2)ccc1NC1CCC(=O)NC1=O (stereo partly drawn) [Compound 207, 5-((4-(4-((1-(4-((2,6-dioxopiperidin-3-yl)amino)-3-methylphenyl)piperidin-4-yl)methyl)piperazin-1-yl)-3-fluorophenyl)amino)-3-((R)-3-(3-methyl-2-oxoimidazolidin-1-yl)piperidin-1-yl)-1,2,4-triazin-6-carboxamide] | < 1 | 9.64 |  |
| CN1CCN([C@@H]2CCCN(c3nnc(C(N)=O)c(Nc4ccc(N5CCN(CC#Cc6ccc(C(=O)NC7CCC(=O)NC7=O)nc6)CC5)c(F)c4)n3)C2)C1=O (stereo partly drawn) [Compound 224, 5-((4-(4-(3-(6-((2,6-dioxopiperidin-3-yl)carbamoyl)pyridin-3-yl)propan-2-yn-1-yl)piperazin-1-yl)-3-fluorophenyl)amino)-3-((R)-3-(3-methyl-2-oxoimidazolidin-1-yl)piperidin-1-yl)-1,2,4-triazin-6-carboxamide] | < 1 | 8.65 |  |
| CN1CCN([C@@H]2CCCN(c3nnc(C(N)=O)c(Nc4ccc(N5CCN(CC#Cc6ccc7c(c6)n(C)c(=O)n7C6CCC(=O)NC6=O)CC5)c(F)c4)n3)C2)C1=O (stereo partly drawn) [Compound 227, 5-((4-(4-(3-(1-(2,6-dioxopiperidin-3-yl)-3-methyl-2-oxo-2,3-dihydro-1H-benzo[d]imidazol-5-yl)propan-2-yn-1-yl)piperazin-1-yl)-3-fluorophenyl)amino)-3-((R)-3-(3-methyl-2-oxoimidazolidin-1-yl)piperidin-1-yl)-1,2,4-triazin-6-carboxamide] | < 1 | 9.57 |  |
| CN1CCN([C@@H]2CCCN(c3nnc(C(N)=O)c(Nc4ccc(C5CCN(CC6CCN(c7ccc(N8CCC(=O)NC8=O)cc7)CC6)CC5)c(F)c4)n3)C2)C1=O [Compound 234, (R)-5-((4-(1-((1-(4-(2,4-dioxotetrahydropyrimidin-1(2H)-yl)phenyl)piperidin-4-yl)methyl)piperidin-4-yl)-3-fluorophenyl)amino)-3-(3-(3-methyl-2-oxoimidazolidin-1-yl)piperidin-1-yl)-1,2,4-triazin-6-carboxamide] | < 1 | 8.75 |  |
| CN1CCN([C@@H]2CCCN(c3nnc(C(N)=O)c(Nc4ccc(N5CCN(CC6CCN(c7ccc8c9c(oc8c7)C(=O)N(C7CCC(=O)NC7=O)C9)CC6)CC5)c(F)c4)n3)C2)C1=O (stereo partly drawn) [Compound 223, 5-((4-(4-((1-(2-(2,6-dioxopiperidin-3-yl)-3-oxo-2,3-dihydro-H-benzofuro[2,3-c]pyrrol-6-yl)piperidin-4-yl)methyl)piperazin-1-yl)-3-fluorophenyl)amino)-3-((R)-3-(3-methyl-2-oxoimidazolidin-1-yl)piperidin-1-yl)-1,2,4-triazin-6-carboxamide] | < 1 | 8.59 |  |
| CN1CCN([C@@H]2CCCN(c3nnc(C(N)=O)c(Nc4ccc(N5CCC(CN6CCN(c7cc8c(cc7F)C(=O)N(C7CCC(=O)NC7=O)C8=O)CC6)CC5)cc4)n3)C2)C1=O (stereo partly drawn) [Compound 125, 5-((4-(4-((4-(2-(2,6-dioxopiperidin-3-yl)-6-fluoro-1,3-dioxoisoindolin-5-yl)piperazin-1-yl)methyl)piperidin-1-yl)phenyl)amino)-3-((R)-3-(3-methyl-2-oxoimidazolin-1-yl)piperidin-1-yl)-1,2,4-triazin-6-carboxamide] | < 1 | 8.74 |  |
| CN1CCN([C@@H]2CCCN(c3nnc(C(N)=O)c(Nc4ccc(N5CCN(CC6CCN(c7ccc(N8CCC(=O)NC8=O)c8[nH]cnc78)CC6)CC5)c(F)c4)n3)C2)C1=O [Compound 192, (R)-5-((4-(4-((1-(7-(2,4-dioxotetrahydropyrimidin-1(2H)-yl)-1H-benzo[d]imidazol-4-yl)piperidin-4-yl)methyl)piperazin-1-yl)-3-fluorophenyl)amino)-3-(3-(3-methyl-2-oxoimidazolidin-1-yl)piperidin-1-yl)-1,2,4-triazin-6-carboxamide] | < 1 |  | 8.62 |

Further lines, with some results ahead:

| DC50 (BTK) [nM] | pIC50 (OCI-LY10 cells) | SMILES | pIC50 (Mino cells) |
| --- | --- | --- | --- |
| < 1 | 9.41 | CN1CCN([C@@H]2CCCN(c3nnc(C(N)=O)c(Nc4ccc(C5CCN(C(=O)C6CCN(c7ccc8c(c7)C(=O)N(C7CCC(=O)NC7=O)C8=O)C6)CC5)cc4)n3)C2)C1=O (stereo partly drawn) [Compound 127, 5-((4-(1-(1-(2-(2,6-dioxopiperidin-3-yl)-1,3-dioxoisoindolin-5-yl)pyrrolidin-3-carbonyl)piperidin-4-yl)phenyl)amino)-3-((R)-3-(3-methyl-2-oxoimidazolin-1-yl)piperidin-1-yl)-1,2,4-triazin-6-carboxamide] | 8.69 |
| < 1 | 8.98 | CN1CCN([C@@H]2CCCN(c3nnc(C(N)=O)c(Nc4ccc(N5CCN(CC6CCN(c7ccc(NC8CCC(=O)NC8=O)nc7)CC6)CC5)c(F)c4)n3)C2)C1=O (stereo partly drawn) [Compound 202, 5-((4-(4-((1-(6-((2,6-dioxopiperidin-3-yl)amino)pyridin-3-yl)piperidin-4-yl)methyl)piperazin-1-yl)-3-fluorophenyl)amino)-3-((R)-3-(3-methyl-2-oxoimidazolidin-1-yl)piperidin-1-yl)-1,2,4-triazin-6-carboxamide] | 8.17 |
| < 1 | 9.10 | CN1CCN([C@@H]2CCCN(c3nnc(C(N)=O)c(Nc4ccc(N5CCN(CC6CCN(c7ccc8c(c7)C(=O)N(C7CCC(=O)NC7=O)C8)CC6)CC5)c(F)c4)n3)C2)C1=O (stereo partly drawn) [Compound 168, 5-((4-(4-((1-(2-(2,6-dioxopiperidin-3-yl)-3-oxoisoindolin-5-yl)piperidin-4-yl)methyl)piperazin-1-yl)-3-fluorophenyl)amino)-3-((R)-3-(3-methyl-2-oxoimidazolidin-1-yl)piperidin-1-yl)-1,2,4-triazin-6-carboxamide] | 8.42 |
| < 1 | 8.58 | CN1CCN([C@@H]2CCCN(c3nnc(C(N)=O)c(Nc4ccc(N5CCN(CC6CCN(c7ccc(NC8CCC(=O)NC8=O)cn7)CC6)CC5)c(F)c4)n3)C2)C1=O (stereo partly drawn) [Compound 203, 5-((4-(4-((1-(5-((2,6-dioxopiperidin-3-yl)amino)pyridin-2-yl)piperidin-4-yl)methyl)piperazin-1-yl)-3-fluorophenyl)amino)-3-((R)-3-(3-methyl-2-oxoimidazolidin-1-yl)piperidin-1-yl)-1,2,4-triazin-6-carboxamide] | 8.90 |
| < 1 | 8.87 | CN1CCN([C@@H]2CCCN(c3nnc(C(N)=O)c(Nc4ccc(N5CCN(CC6CCN(c7ccc(N8CCC(=O)NC8=O)c(F)c7F)CC6)CC5)c(F)c4)n3)C2)C1=O [Compound 185, (R)-5-((4-(4-((1-(4-(2,4-dioxotetrahydropyrimidin-1(2H)-yl)-2,3-difluorophenyl)piperidin-4-yl)methyl)piperazin-1-yl)-3-fluorophenyl)amino)-3-(3-(3-methyl-2-oxoimidazolidin-1-yl)piperidin-1-yl)-1,2,4-triazin-6-carboxamide] |  |
